Assay results published in patent publication US20240307372A1, “COMPOSITIONS AND METHODS TO IMPROVE BENEFIT OF SUBOPTIMALLY ADMINISTERED THERAPEUCTICS FOR THE TREATMENT OF BENIGN AND NEOPLASTIC DISEASES, INFECTIONS, INFLAMMATORY, METABOLIC AND IMMUNOLOGIAL DISEASES” (priority 2023, published 2024).
Like-named read-outs stand apart in the source and are kept apart here.

Legend:
K562 cells = test: K562 cell viability after TET exposure (trypan blue); type: cell-based, human; details: 24 hours
Protocol: Briefly, the method for the first portion of the study was as follows: K562 cells were grown and maintained in medium (RPMI, 10% FBS, Pen Strep and […]). Cells were then exposed to TET, 0, 0.1, 1, 5, 10, 20 & 40 μM for 24 hours at 37° C. Following drug exposure, cell viability was checked using trypan blue, followed by cell lysis. Supernatants were collected and test for protein concentration using a Pierce BCA kit. The protein assay tubes were read on a Spectramax at 562 nm and Softmax@ software was used for protein concentration analysis.
The effect of TET treatment on K562 percent cell viability is depicted in Table 2 and is graphically illustrated in FIG. 2.

[1] = tested on: human chronic myeloid leukemia (CML) progenitors; test: Colony forming cell (CFC) assay on CML patient bone marrow cells, methylcellulose-based medium
Protocol: An in vitro investigation was performed to determine whether TET has efficacy on human chronic myeloid leukemia (CML) stem-like cells. A colony forming cell (CFC) assay was performed on bone marrow cells from a de-novo CML patient.
Human bone marrow light density cells derived from CML patient bone marrow (Conversant Bio, Alabama), were stored in the gaseous phase of liquid nitrogen until required. On the day of the experiment, the cells were thawed rapidly, the contents of the vial were diluted in 10 mL of Iscove's Modified Dulbecco's Medium containing 10% fetal bovine serum (IMDM+10% FBS) and washed by centrifugation (approximately 1200 r.p.m. for 10 minutes, room temperature). The supernatant was discarded and the cell pellets resuspended in a known volume of IMDM+10% FBS. A cell count (3% glacial acetic acid) and viability assessment (trypan blue exclusion test) […] Tetrandrine (10 μM) for 14 days. After treatment, primary and secondary colonies were grown and analyzed by qPCR to determine BCR-ABL or ABL only cells.
Human erythroid (CFU-E and BFU-E) and myeloid (CFU-GM) colony enumeration were performed by trained personnel. In addition, the distribution of colony types as well as general colony and cellular morphology were analyzed. […] For statistical analysis, colony numbers in compound-treated cultures were compared to the solvent control cultures.

bcr-abl = test: TaqMan qPCR assay for bcr-abl and abl in plucked CML colonies; type: cell-based, human; details: 10 μM
Protocol: To determine whether a colony was normal (bcr-abl negative and abl positive) or diseased (bcr-abl and abl positive), a TaqMan®-based qPCR test was used. In order to score the colonies positive or negative, the following scoring strategy was performed. All colonies were assayed in duplicate for each target. If a singleton reaction yielded a Ct then the reaction scored a 1. If no Ct was recorded, a score of 0 was given. From here, we used a logic test to score the colonies into four different categories: bcr-abl and abl, abl only, bcr-abl only or both negative. In order to be placed in a category, a colony must score a 1 in both reactions. However, if a colony only scored a 1 for one out of the two reactions, this colony was removed from the analysis. If a colony scored a 1 for each reaction (both ber-abl and abl) the colony was placed into the ber-abl and abl category, signifying it as a diseased colony. Alternatively, if a colony scored a 1 in only both of the ber-abl reactions or a 1 in only both the abl reactions, the colony was placed in the ber-abl only or abl only category, respectively. If the colony scored a 0 for both targets (bcr-abl and abl) then the colony was placed in the both negative category.
In total 48 primary colonies and 31 secondary replated colonies were assessed for bcr-abl and abl using qPCR. […] Thirteen secondary colonies treated with Tetrandrine at 10 μM were assessed.

hERG = hERG (Homo sapiens, UniProt Q12809); test: hERG inhibition, IonWorks HT electrophysiology in CHO cells stably transfected with hERG; details: for IC50: read-out: hERG IC50, CHO cells stably transfected with hERG, 300 sec contact
Protocol: The purpose of this study was to evaluate the potential of a test article to inhibit hERG. The experiments are performed on an Ion Works™ HT instrument (Molecular Devices Corporation), which automatically performs electrophysiology measurements in […] single cells simultaneously in aspecialized 384-well plate (PatchPlate). All cell suspensions, buffers and test compound solutions are at room temperature during the experiment. The cells used are Chinese hamster ovary (CHO) cells stably transfected with hERG (cell-line obtained from Cytomyx, UK). A single-cell suspension is prepared in extracellular solution (Dulbecco's phosphate buffered saline with calcium and magnesium pH 7-7.2) and aliquots added automatically to each well of a PatchPlate™. The cells are then positioned over a small hole at the bottom of each well by applying a vacuum beneath the plate to form an electrical seal. The vacuum is applied through a single compartment common to all wells which is filled with intracellular solution (buffered to pH 7.2 with HEPES). The resistance of cach seal is measured via a common ground-electrode in the intracellular compartment and individual electrodes placed into each of the upper wells. Electrical access to the cell is then achieved by circulating a perforating agent, amphotericin, underneath the PatchPlate and then measuring the pre-compound hERG current. An electrode is positioned in the extracellular compartment and a holding potential of −80 mV applied for 15 sec. The hERG channels are then activated by applying a depolarizing step to +40 mV for 5 sec and then clamped at −50 mV for 4 sec to elicit the hERG tail current, before returning to −80 mV for 0.3 sec. Test compound is then added automatically to the upper wells of the PatchPlateTM from a 96-well microtitre plate containing a range of concentrations of each compound. […] The test compound is left in contact with the cells for 300 sec before recording currents using the same voltage-step protocol as in the pre-compound scan. […] Each concentration is tested in 4 replicate wells on the PatchPlate™. […] Post-compound currents are then expressed as a percentage of pre-compound currents and plotted against concentration for each compound (FIG. 8). Testing was conducted by Cyprotex US, LLC, Watertown, MA.

HCT116 cells = details: human colorectal (HCT116) cells; cited from earlier work
calmodulin (CaM) = calmodulin (CaM) (Homo sapiens, UniProt P0DP23); details: cited from earlier work
[2] = Primary colonies, of 17 colonies
[3] = Secondary colonies, of 10 colonies

Chain of hERG (Q12809 whole entry): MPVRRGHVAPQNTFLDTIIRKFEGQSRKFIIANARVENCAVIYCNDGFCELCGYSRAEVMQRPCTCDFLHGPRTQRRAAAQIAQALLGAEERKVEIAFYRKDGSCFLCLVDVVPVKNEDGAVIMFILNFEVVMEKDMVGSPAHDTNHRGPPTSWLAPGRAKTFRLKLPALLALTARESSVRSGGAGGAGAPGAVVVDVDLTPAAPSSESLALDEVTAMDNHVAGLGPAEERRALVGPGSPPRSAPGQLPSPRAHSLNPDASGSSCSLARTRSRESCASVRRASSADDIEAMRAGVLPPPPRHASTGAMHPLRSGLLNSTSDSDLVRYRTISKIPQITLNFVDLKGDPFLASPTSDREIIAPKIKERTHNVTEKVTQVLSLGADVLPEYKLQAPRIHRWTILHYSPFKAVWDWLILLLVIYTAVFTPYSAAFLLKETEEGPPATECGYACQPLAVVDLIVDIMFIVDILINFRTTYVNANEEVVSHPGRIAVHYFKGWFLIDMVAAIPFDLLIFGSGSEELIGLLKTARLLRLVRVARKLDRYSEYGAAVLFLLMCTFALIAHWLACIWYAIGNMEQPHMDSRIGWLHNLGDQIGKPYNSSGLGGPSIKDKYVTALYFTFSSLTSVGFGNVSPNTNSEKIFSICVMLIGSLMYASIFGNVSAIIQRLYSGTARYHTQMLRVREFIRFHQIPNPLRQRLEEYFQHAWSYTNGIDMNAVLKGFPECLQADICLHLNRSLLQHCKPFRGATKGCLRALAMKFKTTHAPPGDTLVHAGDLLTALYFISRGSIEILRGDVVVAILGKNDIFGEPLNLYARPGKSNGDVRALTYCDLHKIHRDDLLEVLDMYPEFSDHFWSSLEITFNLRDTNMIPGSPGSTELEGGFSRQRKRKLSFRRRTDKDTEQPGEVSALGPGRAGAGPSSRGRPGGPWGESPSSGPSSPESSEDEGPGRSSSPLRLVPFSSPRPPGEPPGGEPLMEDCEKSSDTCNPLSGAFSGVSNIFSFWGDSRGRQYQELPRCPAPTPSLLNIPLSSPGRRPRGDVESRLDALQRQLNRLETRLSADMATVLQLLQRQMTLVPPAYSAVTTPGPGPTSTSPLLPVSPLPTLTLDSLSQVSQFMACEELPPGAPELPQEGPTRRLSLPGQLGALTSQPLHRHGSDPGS

## 6,6′,7,12-tetramethoxy-2,2′-dimethyl-berbaman [ES-3000]
K562 cells; 0.1 μM
  % Viability: 82.4%
K562 cells; 1 μM
  % Viability: 79.2%
K562 cells; 5 μM
  % Viability: 81.8%
K562 cells; 10 μM
  % Viability: 79.7%
K562 cells; 20 μM
  % Viability: 76.5%
K562 cells; 40 μM
  % Viability: 56.4%
[1]; 10 μM
  CFU-GM colonies: 26 ± 2
  Total CFC: 26 ± 2
[1]; read-out: Myeloid IC50 ± 95% CI, Human progenitors
  IC50: 9.56 ± 1.25 µM
bcr-abl; Primary colonies
  abl only colonies: 1
  bcr-abl and abl colonies: 11
  bcr-abl only colonies: 1
  both negative colonies: 4
bcr-abl; [2]
  colonies abl positive only: 5.8%
  colonies bcr-abl and abl positive: 65%
  colonies negative for both targets: 23.5%
bcr-abl; Primary colonies, of 17 colonies, listed as Tetrandrine
  colonies bcr-abl and abl positive: 64.7%
bcr-abl; Secondary colonies
  abl only colonies: 1
  bcr-abl and abl colonies: 0
  bcr-abl only colonies: 0
  both negative colonies: 9
bcr-abl; [3]
  colonies negative for both bcr-abl and abl: 90%
  colonies positive for abl only: 10%
hERG
  IC50: 5.15 µM
hERG; listed as TET
  IC50: 5.2 µM
hERG; subjects
  plasma level above which QT prolongation might be expected: above 249 ng/mL
hERG; utilizing Cmax from previous human clinical experience
  safety margin for cardiac conduction-related toxicity (hERG IC50 versus human Cmax): 13 fold
HCT116 cells
  wnt/β-catenin signaling and tumor growth: inhibit wnt/β-catenin signaling and tumor growth
Calmodulin (CaM)
  binding to calmodulin (CaM): bind competitively to calmodulin (CaM)
